Key:
COX-2 [1] = biological target: T1, COX-2 (Homo sapiens, UniProt P35354); test: Whole cell COX-2 assay using CHO transfected cell line (PGE2 radioimmunoassay); format: cell-based; design: expressed in transfected cells; host or cells: CHO [hCOX-2], stably transfected with pCDNAIII; conditions: CHO [hCOX-2] cells; PGE2 synthesis in response to arachidonic acid
T1 sequence (P35354 18-604): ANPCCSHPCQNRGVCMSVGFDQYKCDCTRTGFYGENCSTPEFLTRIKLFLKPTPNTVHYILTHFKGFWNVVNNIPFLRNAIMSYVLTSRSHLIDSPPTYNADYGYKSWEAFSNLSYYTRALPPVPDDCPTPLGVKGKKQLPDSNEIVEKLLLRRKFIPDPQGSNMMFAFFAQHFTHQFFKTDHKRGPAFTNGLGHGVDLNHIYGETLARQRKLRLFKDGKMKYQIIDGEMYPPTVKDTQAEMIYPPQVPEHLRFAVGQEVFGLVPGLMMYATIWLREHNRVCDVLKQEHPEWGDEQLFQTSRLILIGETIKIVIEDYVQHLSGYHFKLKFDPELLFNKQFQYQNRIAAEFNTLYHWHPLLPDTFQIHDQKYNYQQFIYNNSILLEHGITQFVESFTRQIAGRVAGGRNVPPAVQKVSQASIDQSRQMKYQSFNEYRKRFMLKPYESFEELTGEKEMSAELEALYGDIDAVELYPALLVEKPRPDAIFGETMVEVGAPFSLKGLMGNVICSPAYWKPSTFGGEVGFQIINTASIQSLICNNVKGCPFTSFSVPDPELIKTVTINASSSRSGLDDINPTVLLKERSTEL
Procedure: Compounds are tested as inhibitors of cyclooxygenase activity in whole cell cyclooxygenase assays. These assays measure prostaglandin E2 synthesis in response to arachidonic acid, using a radioimmunoassay. Cells used for these assays are chinese hamster ovary (CHO) cell lines which have been stably transfected with an eukaryotic expression vector […] containing either the human Cox-1 or Cox-2 CDNA's. U937 cell microsomes are also used to measure Cox-1 activity.
Chinese hamster ovary (CHO) cell lines which have been stably transfected with an eukaryotic expression vector pCDNAIII containing either the human COX-1 or COX-2 cDNA's are used for the assay. These cell lines are referred to as CHO [hCOX-1] and CHO [hCOX-2], respectively. For cyclooxygenase assays, CHO[hCOX-1] cells from suspension cultures and CHO[hCOX-2] cells prepared by trypsinization of adherent cultures are harvested by centrifugation (300 x g, 10 min) and washed once in HBSS containing 15 mM HEPES, pH 7.4, and resuspended in HBSS, 15 mM HEPES, pH 7.4, at a cell concentration of 1.5 x 10^6 cells/ml. Drugs to be tested are dissolved in DMSO to 66.7-fold the highest test drug concentration. […] Cells (0.3 x 10^6 cells in 200 µl) are preincubated with 3 µl of the test drug or DMSO vehicle for 15 min at 37°C. Working solutions of peroxide-free AA (5.5 µM and 110 µM AA for the CHO [hCOX-1] and CHO [COX-2] assays, respectively) are prepared by a 10-fold dilution of a concentrated AA solution in ethanol into HBSS containing 15 mM HEPES, pH 7.4.
In the assay, inhibition is determined by measuring the amount of prostaglandin E2 (PGE2) synthesized in the presence of arachidonic acid, cyclooxygenase-1 or cyclooxygenase-2 and a putative inhibitor.

COX-2 [2] = biological target: T1, COX-2; test: Human whole blood assay, COX-2 (LPS-induced PGE2 production); format: cell-based; design: endogenous in cells; host or cells: fresh heparinized human whole blood from volunteers, stimulated with LPS; conditions: LPS 100 µg/ml, 24 hours at 37°C, read-out: COX-2 (IC50) HWB
Source text: As well, platelets in whole blood contain a large amount of the COX-1 enzyme. Immediately following blood clotting, platelets are activated through a thrombin-mediated mechanism. This reaction results in the production of thromboxane B2 (TxB2) via activation of COX-1. Thus, the effect of test compounds on TxB2 levels following blood clotting can be examined and used as an index for COX-1 activity. Therefore, the degree of selectivity by the test compound can be determined by measuring the levels of PGE2 after LPS induction (COX-2) and TxB2 following blood clotting (COX-1) in the same assay.
Fresh blood is collected in heparinized tubes by venipuncture from both male and female volunteers. The subjects have no apparent inflammatory conditions and have not taken any NSAIDs for at least 7 days prior to blood collection. Plasma is immediately obtained from a 2mL blood aliquot to use as blank (basal levels of PGE2). The remaining blood is incubated with LPS (100 µg/ml final concentration, Sigma Chem, #L-2630 from E. coli; diluted in 0.1% BSA (Phosphate buffered saline) for 5 minutes at room temperature. Five hundred µL aliquots of blood are incubated with either 2µL of vehicle (DMSO) or 2µL of a test compound at final concentrations varying from 10nM to 30µM for 24 hours at 37°C. At the end of the incubation, the blood is centrifuged at 12,000 x g for 5 minutes to obtain plasma. A 100µL aliquot of plasma is mixed with 400µL of methanol for protein precipitation. The supernatant is obtained and is assayed for PGE2 using a radioimmunoassay kit (Amersham, RPA#530) after conversion of PGE2 to its methyl oximate derivative according to the manufacturer's procedure.

Rat Paw Edema = test: Rat paw edema assay (carrageenan-induced); format: in vivo, Male Sprague-Dawley rats; conditions: po, 1 hr before subplantar carrageenan, paw volume measured three hr later
Procedure: Male Sprague-Dawley rats (150-200 g) are fasted overnight and are given, po, either vehicle (1% methocel or 5% Tween 80) or a test compound. One hr later, a line is drawn using a permanent marker at the level above the ankle in one hind paw to define the area of the paw to be monitored. The paw volume (V0) is measured using a plethysmometer (Ugo-Basile, Italy) based on the principle of water displacement. The animals are then injected subplantarly with […] of 1% carrageenan solution in saline (FMC Corp, Maine) into the paw using an insulin syringe with a 25-gauge needle (i.e. […] carrageenan per paw). Three hr later, the paw volume (V3) is measured and the increases in paw volume (V3 - VO) are calculated. The animals are sacrificed by CO2 asphyxiation and the absence or presence of stomach lesions scored. Data is compared with the vehicle-control values and percent inhibition calculated. All treatment groups are coded to eliminate observer bias.

Row | IC50 (COX-2 [1]) [µM] | IC50 (COX-2 [2]) [µM] | SMILES | ED50 (Rat Paw Edema) [mg/kg]
1 | 0.05 | 1.9 | C=CC(C)OC1=C(c2ccc(S(C)(=O)=O)cc2)C(C)(C)OC1=O (stereo not drawn) [Example 1, 5,5-Dimethyl-3-((1-methylallyl)oxy)-4-(4-methylsulfonylphenyl)-5H-furan-2-one] | 
2 |  |  | CC1(C)OC(=O)C(OC(C(F)(F)F)C(F)(F)F)=C1c1ccc(S(C)(=O)=O)cc1 [Example 2, 5,5-Dimethyl-3-(1,1,1,3,3,3-hexafluoropropoxy)-4-(4-methylsulfonyl-phenyl)-5H-furan-2-one] | 1
3 |  |  | C#CC(C)OC1=C(c2ccc(S(C)(=O)=O)cc2)C(C)(C)OC1=O (stereo not drawn) [Example 3, 5,5-Dimethyl-3-((1-methyl-2-propynyl)oxy)-4-(4-methylsulfonylphenyl)-5H-furan-2-one] | 2.4
4 | 0.08 | 0.6 | C=CC(C)(O)COC1=C(c2ccc(S(C)(=O)=O)cc2)C(C)(C)OC1=O (stereo not drawn) [Example 5, 3-((2-hydroxy-2-methyl-3-butenyl)oxy)-5,5-dimethyl-4-(4-methyl-sulfonyl)phenyl-5H-furan-2-one] | 
5 | 0.07 | 2.1 | C=C(C)OC1=C(c2ccc(S(C)(=O)=O)cc2)C(C)(C)OC1=O [Example 7, 3-(Isopropenyloxy)-5,5-dimethyl-4-(4-methylsulfonylphenyl)-5H-furan-2-one] | 
6 | 0.5 | 0.5 | C[C@@H](CO)COC1=C(c2ccc(S(C)(=O)=O)cc2)C(C)(C)OC1=O [Example 8, 3-(((2S)-3-hydroxy-2-methylpropyl)oxy)-5,5-dimethyl-4(4-methyl-sulfonylphenyl)-5H-furan-2-one] | 3.1
7 | 0.4 | < 0.4 | C[C@H](CO)COC1=C(c2ccc(S(C)(=O)=O)cc2)C(C)(C)OC1=O [Example 9, 3-(((2R)-3-hydroxy-2-methylpropyl)oxy)-5,5-dimethyl-4-(4-methylsulfonylphenyl)-5H-furan-2-one] | 
8 | 0.5 | 4.7 | CC(CO)OC1=C(c2ccc(S(C)(=O)=O)cc2)C(C)(C)OC1=O (stereo not drawn) [Example 12, 3-(2-Hydroxy-1-methylethoxy)-5,5-dimethyl-4-(4-methylsulfonyl-phenyl)-5H-furan-2-one] | 
9 | 0.5 | 5.1 | C#CCOC1=C(c2ccc(S(C)(=O)=O)cc2)C(C)(C)OC1=O [Example 14, 5,5-Dimethyl-4-(4-methylsulfonylphenyl)3-(2-propynyloxy)-5H-furan-2-one] | 
10 | 0.2 | 1.8 | C=CCOC1=C(c2ccc(S(C)(=O)=O)cc2)C(C)(C)OC1=O [Example 15, 3-(Allyloxy)-5,5-dimethyl-4-(4-methylsulfonylphenyl)-5H-furan-2-one] | 
11 | 0.4 |  | CC1(C)OC(=O)C(OC2CCC3(CC2)OCCO3)=C1c1ccc(S(C)(=O)=O)cc1 [Example 16, 3-(1,4-dioxaspiro[4.5]dec-8-yloxy)-5,5-dimethyl-4-(4-methylsulfonyl-phenyl)-5H-furan-2-one] | 
12 |  | < 0.4 | C=C(C)COC1=C(c2ccc(S(C)(=O)=O)cc2)C(C)(C)OC1=O [Example 18, 5,5-dimethyl-3-(2-methylallyloxy)-4-(4-methylsulfonylphenyl)-5H-furan-2-one] | 
13 |  | < 0.4 | CC1(COC2=C(c3ccc(S(C)(=O)=O)cc3)C(C)(C)OC2=O)CC1 [Example 19, 5,5-Dimethyl-3-[(1-methylcyclopropyl)methoxy]-4-(4-methylsulfonyl-phenyl)-5H-furan-2-one] | 
14 | 0.2 | 0.6 | C=C(CF)COC1=C(c2ccc(S(C)(=O)=O)cc2)C(C)(C)OC1=O [Example 20, 3-{[2-(fluoromethyl)allyl]oxy}-5,5-dimethyl-4-(4-methylsulfonyl-phenyl)-5H-furan-2-one] | 
15 |  |  | CC1(C)OC(=O)C(OCC2(CF)CC2)=C1c1ccc(S(C)(=O)=O)cc1 [Example 23, 3-{[1-(fluoromethyl)cyclopropyl]methoxy}-5,5-dimethyl-4-(4-methylsulfonylphenyl)-5H-furan-2-one] | 5.9
16 | 0.4 | 0.8 | CC1(C)OC(=O)C(OC2CCCC2=O)=C1c1ccc(S(C)(=O)=O)cc1 (stereo not drawn) [Example 24, 3-((2-oxocyclopentyl)oxy)-5,5-dimethyl-4-(4-methylsulfonylphenyl)-5H-furan-2-one] | 
17 |  | < 0.4 | CC1(C)OC(=O)C(OC2CCCC2(F)F)=C1c1ccc(S(C)(=O)=O)cc1 (stereo not drawn) [Example 25] | 

Row | SMILES | IC50 (COX-2 [1]) [µM] | IC50 (COX-2 [2]) [µM] | ED50 (Rat Paw Edema) [mg/kg]
18 | CC1(C)OC(=O)C(OC2CCC(F)(F)CC2)=C1c1ccc(S(C)(=O)=O)cc1 [Example 17] | 0.3 | 0.6 | 0.9
19 | CC1(C)OC(=O)C(OCC2(CO)CC2)=C1c1ccc(S(C)(=O)=O)cc1 [Example 21, 3-{[1-(hydroxymethyl)cyclopropyl]methoxy}-5,5-dimethyl-4-(4-methylsulfonylphenyl)-2-5H-furan-2-one] | 0.6 | 0.9 | 

From patent EP0970067B1, “(METHYLSULFONYL)PHENYL-2-(5H)-FURANONES WITH OXYGEN LINK AS COX-2 INHIBITORS” (Merck Frosst Canada & Co., priority 1997, dated 1998)
